Laboratory results reported in the NIST ThermoML archive (doi:10.1021/acs.jced.5b00098).
± gives the expanded uncertainty stated by the source.

Details: Crystal; visual observation

| Normal melting temperature | Structure (SMILES) |
| --- | --- |
| 269.50 ± 0.5 °C | O=c1cc(-c2ccccc2)c2cc(O)c(O)cc2o1 [6,7-dihydroxy-4-phenylcoumarin] |
| 211.50 ± 0.5 °C | COc1cc2oc(=O)cc(-c3ccccc3)c2cc1O [6-hydroxy-7-methoxy-4-phenylcoumarin] |
